Source: patent publication US20090069304A1, “MMP-13 SELECTIVE INHIBITOR” (SHIONOGI & CO., LTD., priority 2006, published 2009)

Legend:
[1] = biological target: T1, MMP-9 (Homo sapiens, UniProt P14780); experiment: Enzyme inhibiting activity of MMPs (fluorogenic peptide substrate), MMP-9; assay type: biochemical; conditions: human MMP-9; substrate MOCAc-Pro-Leu-Gly-Leu-A2Pr(DNP)-Ala-Arg-NH2
T1 construct: purchased Calbiochem (EMD/MERCK Biosciences)
Procedure: (§1) Various human MMPs (MMP-2, MMP-9 and MMP-13) were purchased from Calbiochem (EMD/MERCK Biosciences).
(§2) The enzyme activity of MMPs was measured according to the method described in C. Graham Knight, Frances Willenbrock and Gillian Murphy: A novel coumarin-labelled peptide for sensitive continuous assays of the matrix metalloproteinases: FEBS LETT., 296, (1992), 263-266. As a substrate, MOCAc-Pro-Leu-Gly-Leu-A2Pr(DNP)-Ala-Arg-NH2 (Peptide Institute, Inc. Osaka, Japan) was used, and the following four assays are performed per compound (inhibitor) for measuring the inhibiting activity.
(§3) (A) Substrate (synthetic substrate), enzyme (MMPs), inhibitor (B) Substrate (synthetic substrate), inhibitor (C) Substrate (synthetic substrate), enzyme (MMPs) (D) Substrate (synthetic substrate) In each assay, the fluorescent intensity was measured, and inhibition (%) was calculated by the following equation.
(§4) Inhibition(%)=[I−(A−B)/(C−D)]×100
(§5) IC50 indicates a concentration at which inhibition (%) is 50%.

[2] = biological target: T2, MMP-13 (Homo sapiens, UniProt P45452); experiment: Enzyme inhibiting activity of MMPs (fluorogenic peptide substrate), MMP-13; assay type: biochemical; conditions: human MMP-13, proenzyme activated with APMA; substrate MOCAc-Pro-Leu-Gly-Leu-A2Pr(DNP)-Ala-Arg-NH2
T2 construct: purchased Calbiochem (EMD/MERCK Biosciences)
Procedure: as §1
Since the purchased MMP-13 was Proenzyme, the activated one was used, which was incubated at 37° C. for 2 hours after the successive addition of an assay buffer (containing 50 mM Tris-HCl (pH7.6), 0.3 M NaCl, 10 mM CaCl2, 0.005% Brij35) and APMA (final concentration 1 mM) to the enzyme solution.
as §2, §3, §4, §5

[3] = biological target: T3, MMP-2 (Homo sapiens, UniProt P08253); experiment: Enzyme inhibiting activity of MMPs (fluorogenic peptide substrate), MMP-2; assay type: biochemical; conditions: human MMP-2; substrate MOCAc-Pro-Leu-Gly-Leu-A2Pr(DNP)-Ala-Arg-NH2
T3 construct: purchased Calbiochem (EMD/MERCK Biosciences)
T3 sequence (P08253 110-660): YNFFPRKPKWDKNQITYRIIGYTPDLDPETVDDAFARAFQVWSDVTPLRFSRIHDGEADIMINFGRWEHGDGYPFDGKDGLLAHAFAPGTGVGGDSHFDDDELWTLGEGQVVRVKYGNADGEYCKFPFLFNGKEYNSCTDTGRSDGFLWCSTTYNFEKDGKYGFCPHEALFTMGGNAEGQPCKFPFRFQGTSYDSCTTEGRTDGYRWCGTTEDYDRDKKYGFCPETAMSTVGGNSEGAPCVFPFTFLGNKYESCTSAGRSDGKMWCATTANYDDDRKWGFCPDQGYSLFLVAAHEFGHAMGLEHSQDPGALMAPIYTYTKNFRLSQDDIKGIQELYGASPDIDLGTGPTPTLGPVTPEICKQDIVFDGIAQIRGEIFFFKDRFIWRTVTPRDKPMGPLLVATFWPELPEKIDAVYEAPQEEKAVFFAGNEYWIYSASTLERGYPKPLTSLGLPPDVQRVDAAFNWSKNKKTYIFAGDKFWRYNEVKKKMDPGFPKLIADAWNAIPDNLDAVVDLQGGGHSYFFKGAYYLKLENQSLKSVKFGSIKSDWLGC
Procedure: as §1, §2, §3, §4, §5

T1 sequence (P14780 94-707): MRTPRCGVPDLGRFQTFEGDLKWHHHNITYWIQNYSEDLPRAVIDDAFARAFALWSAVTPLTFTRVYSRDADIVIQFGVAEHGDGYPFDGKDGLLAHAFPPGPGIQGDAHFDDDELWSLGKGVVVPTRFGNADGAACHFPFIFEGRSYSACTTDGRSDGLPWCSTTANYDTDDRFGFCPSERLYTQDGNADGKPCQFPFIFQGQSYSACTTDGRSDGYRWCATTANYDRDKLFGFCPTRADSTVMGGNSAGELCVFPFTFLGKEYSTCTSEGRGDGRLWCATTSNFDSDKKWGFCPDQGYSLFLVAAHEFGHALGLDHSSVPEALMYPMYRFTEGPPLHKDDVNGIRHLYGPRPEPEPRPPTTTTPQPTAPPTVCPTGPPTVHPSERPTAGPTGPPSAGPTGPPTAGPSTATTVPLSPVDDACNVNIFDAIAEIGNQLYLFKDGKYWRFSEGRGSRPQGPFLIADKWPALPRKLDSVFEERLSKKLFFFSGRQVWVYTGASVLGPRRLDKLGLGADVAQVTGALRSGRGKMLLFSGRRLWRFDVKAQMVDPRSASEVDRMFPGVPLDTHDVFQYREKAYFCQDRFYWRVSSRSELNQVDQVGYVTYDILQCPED

Compound | IC50 [1] [µM] | IC50 [2] [µM] | IC50 [3] [µM] | melting point
CCC[C@H](NS(=O)(=O)N1CCC(c2ccc(/C=C/c3ccc4ccccc4c3)cc2)CC1)C(=O)O [Compound I-25] | > 10 | 0.145 | > 10 | –
CCC[C@H](NS(=O)(=O)N1CCN(c2ccc(/C=C/c3ccc4ccccc4c3)cc2)CC1)C(=O)O [Compound I-13] | > 10 | 0.0443 | > 10 | –
CCC[C@H](NS(=O)(=O)N1CCC(c2ccc(C=Cc3ccc4cc(OC)ccc4c3)cc2)CC1)C(=O)O [Compound I-24, (S)-2-(4-{4-[(A)-2-(6-methoxy-naphthalen-2-yl)-vinyl]-phenyl)-piperidine-1-sulfonylamino}-pentanoic acid] | > 10 | 0.138 | > 10 | –
COc1ccc2cc(C#Cc3ccc(N4CCN(S(=O)(=O)N[C@H](C)C(=O)O)C[C@@H]4C)cc3)ccc2c1 [Compound I-53] | > 10 | 0.107 | 1 to 10 | –
COc1ccc2cc(CNc3ccc(N4CCN(S(=O)(=O)N[C@H](C)C(=O)O)CC4)cc3)ccc2c1 [Compound I-45, (R)-2-(4-{4-[4-(6-methoxy-naphthalen-2-ylmethyl)-amino]-phenyl}-piperazine-1-sulfonylamino)-propionic acid] | > 10 | 0.186 | 1 to 10 | –
CON=Cc1ccc2cc(C#Cc3ccc(N4CCN(S(=O)(=O)N[C@H](C)C(=O)O)CC4)cc3)ccc2c1 [Compound I-66, (R)-2-(4-{4-[6-(methoxyimino-methyl)-naphthalen-2-ylethynyl]-phenyl)-piperazine-1-sulfonylamino]-propionic acid] | > 10 | 0.0396 | > 10 | –
CCC[C@H](NS(=O)(=O)N1CCN(c2ccc(/C=C/c3ccc4cc(OCOC)ccc4c3)cc2)CC1)C(=O)O [Compound I-49, (S)-2-(4-{4-[(E)-2-(6-methoxymethoxy-naphthalen-2-yl)-vinyl]-phenyl}-piperazine-1-sulfonylamino)-pentanoic acid] | > 10 | 0.0965 | 1 to 10 | –
COc1ccc2cc(COc3ccc(N4CCN(S(=O)(=O)N[C@@H](C)C(=O)O)CC4)cc3)ccc2c1 [Compound I-15, (S)-2-{4-[4-(6-methoxy-naphthalen-2-ylmethoxy)-phenyl]-piperazine-1-sulfonylamino}-propionic acid] | > 10 | 0.126 | 1 to 10 | –
COc1ccc2cc(COc3ccc(C4CCN(S(=O)(=O)NC(C)C(=O)O)CC4)cc3)ccc2c1 (centres unmarked) [Compound I-19] | > 10 | 0.142 | > 10 | –
CCC[C@H](NS(=O)(=O)N1CCN(c2ccc(C#Cc3ccc4cc(OCC)ccc4c3)cc2)CC1)C(=O)O [Compound I-28, (S)-2-{4-[4-(6-ethoxy-naphthalen-2-ylethynyl)-phenyl]-piperazine-1-sulfonylamino)-pentanoic acid] | > 10 | 0.0771 | > 10 | –
COc1ccc2cc(C#Cc3ccc(N4CCN(S(=O)(=O)N[C@H](C)C(=O)O)C(C)C4)cc3)ccc2c1 (some centres unmarked) [Compound I-47] | > 10 | 0.131 | > 10 | –
CCC[C@H](NS(=O)(=O)N1CCC(c2ccc(CCc3ccc4cc(OC)ccc4c3)cc2)CC1)C(=O)O [Compound I-20, (S)-2-(4-{4-[2-(6-methoxy-naphthalen-2-yl)-ethyl]-phenyl}-piperidine-1-sulfonylamino]-pentanoic acid] | > 10 | 0.0945 | 1 to 10 | –
COc1ccc2cc(/C=C/c3ccc(N4CCN(S(=O)(=O)N[C@@H](C)C(=O)O)CC4)cc3)ccc2c1 [Compound I-21, (S)-2-(4-{4-[(E)-2-(6-methoxy-naphthalen-2-yl)-vinyl]-phenyl}-piperazine-1-sulfonylamino}-propionic acid] | > 10 | 0.176 | > 10 | –
CCC[C@H](NS(=O)(=O)N1CCN(c2ccc(C#Cc3ccc4cc(OC)ccc4c3)cc2)CC1)C(=O)O [Compound I-1, (S)-2-{4-[4-(6-methoxy-naphthalen-2-ylethynyl)-phenyl]-piperazine-1-sulfonylamino}-pentanoic acid] | > 10 | 0.121 | > 10 | 187 to 190 °C (dec.)
COc1ccc2cc(C#Cc3ccc(N4CCN(S(=O)(=O)N[C@H](C(=O)O)C(C)C)CC4)cc3)ccc2c1 [Compound I-5, (S)-2-{4-[4-(6-methoxy-naphthalen-2-ylethynyl)-phenyl]-piperazine-1-sulfonylamino}-3-methyl-butanoic acid] | > 10 | 0.11 | > 10 | –
C[C@@H](NS(=O)(=O)N1CCN(c2ccc(OCc3ccc4ccccc4c3)cc2)CC1)C(=O)O [Compound I-2, (R)-2-{4-[4-(naphthalen-2-ylmethoxy)-phenyl]-piperazine-1-sulfonylamino}-propionic acid] | – | – | – | 167 to 171 °C
C[C@@H](NS(=O)(=O)N1CCN(c2ccc(C#Cc3ccc4cc(OCC5CC5)ccc4c3)cc2)CC1)C(=O)O [Compound I-32, (R)-2-{4-[4-(6-cyclopropylmethoxy-naphthalen-2-ylethynyl)-phenyl]-piperazine-1-sulfonylamino)-propionic acid] | > 10 | 0.0685 | 1 to 10 | –
COc1ccc2cc(C#Cc3ccc(C4CCN(S(=O)(=O)N[C@H](C)C(=O)O)CC4)cc3)ccc2c1 [Compound I-11, (R)-2-{4-[4-(6-methoxy-naphthalen-2-ylethynyl)-phenyl]-piperidine-1-sulfonylamino}-propionic acid] | > 10 | 0.0549 | > 10 | –
CCOc1ccc2cc(C#Cc3ccc(N4CCN(S(=O)(=O)N[C@H](C)C(=O)O)CC4)cc3)ccc2c1 [Compound I-27, (R)-2-{4-[4-(6-ethoxy-naphthalen-2-ylethynyl)-phenyl]-piperazine-1-sulfonylamino)-propionic acid] | > 10 | 0.0423 | > 10 | –
